How the values were obtained:
Format in all cases: cell-based
human neutrophils [1] = experiment: elastase release from human neutrophils pretreated with cytochalasin B (NAF activity); conditions: phosphocellulose fractions
Source text: Human monocytes are isolated from buffy coats of donor blood (Swiss Red Cross Laboratory, Bern, Switzerland) by centrifugation through a Ficoll-Paque gradient. This method separates neutrophils from the so-called mononuclear cells, a mixture of monocytes (about 20%) and lymphocytes (about 80%). Three monocyte preparations are used: (i) the total mononuclear cell fraction, (ii) monocytes enriched from the mononuclear cell fraction by adherence, and (iii) 90% pure monocytes separated from the lymphocytes by centrifugal elutriation (G. Garotta et al., Biochem. Biophys. Res. Comm. 140 [1986] 948-954 and K. J. Clemetson et al., J. Exp. Med. 161 [1985] 972-983). The cells are cultured in MEM-PPL and stimulated with increasing concentrations (0.1 ng to 1 μg/ml) of LPS. At different times, aliquots of the culture media are sampled and NAF activity is determined as the capacity to induce the release of elastase from human neutrophils pretreated with cytochalasin B (B. Dewald et al., Biochem. Pharmacol. 36 [1987] 2505-2510).
Mononuclear cells obtained from donor blood buffy coats as described in Example 1 are cultured in MEM-PPL for 48 h in the presence of 100 ng/ml LPS in stirred culture bottles (1.5 liter, 5×10^6 cells/ml). […] Absorbance at 280 nm is monitored continuously as a measure of protein. […]

human neutrophils [2] = experiment: cytosolic free Ca2+ changes in quin-2 loaded human neutrophils; conditions: as low as
Method: Upper graphs: cytosolic free Ca^2+ changes induced by natural (left) and recombinant (right) NAF. Neutrophils (4×10^6 cells/ml) are loaded with 0.1 nmol quin-2/AM and then stimulated with 3 nM NAF (mark). Quin-2 saturation changes calibrated as described in V. Von Tscharner et al., J. Biol. Chem. 261 (1986) 10163-10168.
(§1) Natural and recombinant NAF are tested in parallel on human neutrophils. They elicit virtually identical changes in cytosolic free Ca^2+, yielding a maximum rise at a concentration as low as 3 nM (FIG. 15). A nearly identical concentration-dependent respiratory burst response is obtained with both preparations in the range of 1 to 30 nM as assessed by chemiluminescence. The equivalence between natural and recombinant NAF is also reflected by chemotaxis and exocytosis measurements. Chemotactic migration is observed between 0.1 and 10 nM with a maximum effect at 1 nM. (Table 6). With either peptide a significant release of vitamin B12-binding protein from the specific granules at 0.3 nM and of beta-glucuronidase from the azurophil granules at 1 nM is observed.

human neutrophils [3] = experiment: NAF-induced neutrophil chemotaxis (leading front migration); conditions: for leading front migration: random migration 61 ± 5 μm
Method: as §1

human neutrophils [4] = experiment: stimulus-dependent exocytosis of granule contents by human neutrophils
Method: Neutrophils (5×10^6/ml) suspended in PBS/BSA are preincubated with or without cytochalasin B (5 μg/ml) at 37° for 5 min.
Granule release is then initiated by adding the stimulus, e.g. NAF or a standard stimulus. The reaction is stopped 15 min later by rapid cooling in ice followed by centrifugation to sediment the cells. Vitamin B12-binding protein, β-glucuronidase and lactate dehydrogenase are determined in the cell-free media and cell pellets, and the release of these constituents is calculated in percent of the total cellular content (B. Dewalt and M. Baggiolini, Methods Enzymol. 132 [1986] 267).
as §1

Substance	elastase-releasing activity (human neutrophils [1])	concentration yielding a maximum rise in cytosolic free Ca2+ (human neutrophils [2]) [nM]	concentration of maximum chemotactic effect (human neutrophils [3]) [nM]	leading front migration (human neutrophils [3]; NAF 0.1 nM) [μm]	leading front migration (human neutrophils [3]; NAF 1.0 nM) [μm]	leading front migration (human neutrophils [3]; NAF 10.0 nM) [μm]	concentration giving significant release of beta-glucuronidase from the azurophil granules (human neutrophils [4]) [nM]	concentration giving significant release of vitamin B12-binding protein from the specific granules (human neutrophils [4]) [nM]
interleukin-1 [IL-1]	no elastase-releasing activity							
natural NAF: NAF purified from culture fluid of LPS-stimulated human monocytes		3	1	98 ± 6	123 ± 6	127 ± 3	1	0.3
recombinant NAF: 72-amino-acid NAF obtained by recombinant DNA processes, expressed in E. coli		3	1	88 ± 6	124 ± 3	126 ± 4	1	0.3

Source: patent US6383479B1, “Neutrophil-activating factor” (Novartis AG, priority 1987, dated 2002)
